Results as given in patent publication US8153795B2, “Substituted 1-oxa-3,8-diazaspiro[4.5]-decan-2-one-compounds and the use thereof for producing drugs” (Gruenenthal GmbH, priority 2005, dated 2012).

Legend:
[1] = biological target: T1, NA transporter (Rattus norvegicus, UniProt Q63380); assay: noradrenalin uptake inhibition in rat brain synaptosomes (hypothalamus), [3H]-NA; format: biochemical
T1 construct: from tissue; host or cells: rat brain synaptosomes (P2 fraction) from hypothalamus
From the text: a) Method for Determining Noradrenalin and 5-HT Uptake Inhibition:
Synaptosomes from rat brain regions are freshly isolated for in vitro studies, as described in the publication “The isolation of nerve endings from brain” by E. G. Gray and V. P. Whittaker, J. Anatomy 96, pages 79-88, 1962. The corresponding literature description is hereby introduced as a reference and is deemed to be part of the disclosure.
The tissue (hypothalamus for the determination of noradrenalin uptake inhibition and medulla and pons for the determination of 5-HT uptake inhibition) is homogenised in ice-cooled 0.32 M sucrose (100 mg of tissue/1 mL) in a glass homogeniser with Teflon pestle using five complete up and down strokes at 840 revolutions/minute.
The homogenate is centrifuged at 4° C. for 10 minutes at 1000 g. After subsequent centrifugation at 17000 g for 55 minutes, the synaptosomes (P2 fraction) are obtained, which are resuspended in 0.32 M […] (0.5 mL/100 mg of original weight).
The particular uptake is measured in a 96-well microtitre plate. The volume is 250 μl and the incubation proceeds at room temperature (approx. 20-25° C.) under an O2 atmosphere.
The incubation time is 7.5 minutes for [^3H]-NA and 5 minutes for [^3H]-5-HT. The 96 samples are then filtered through a Unifilter GF/B® microtitre plate (Packard) and washed with 200 mL of incubated buffer using a “Brabdel MPXRI-96T Cell-Harvester”. The Unifilter GF/B plate is dried for 1 hour at 55° C. The plate is then sealed with a Back Seal® (Packard) and 35 μl of scintillation fluid are added per well (Ultima Gold®, Packard). After sealing with a top Seal® (Packard) and establishing an equilibrium (around 5 hours), radioactivity is determined in a “Trilux 1450 Microbeta” (Wallac).
The quantity of protein used in the above determination corresponds to the values known from the literature, as for example described in “Protein measurement with the folin phenol reagent”, Lowry et al., J. Biol. Chem., 193, 265-275, 1951.
A detailed description of the method may additionally be found in the literature, for example in M. Ch. Frink, H.-H. Hennies, W. Engelberger, M. Haurand and B. Wilffert (1996) Arzneim.-Forsch./Drug Res. 46 (III), 11, 1029-1036.

[2] = biological target: T2, 5-HT transporter (Rattus norvegicus, UniProt P31652); assay: 5-HT uptake inhibition in rat brain synaptosomes (medulla and pons), [3H]-5-HT; format: biochemical
T2 construct: from tissue; host or cells: rat brain synaptosomes (P2 fraction) from medulla and pons
T2 sequence (P31652 whole entry): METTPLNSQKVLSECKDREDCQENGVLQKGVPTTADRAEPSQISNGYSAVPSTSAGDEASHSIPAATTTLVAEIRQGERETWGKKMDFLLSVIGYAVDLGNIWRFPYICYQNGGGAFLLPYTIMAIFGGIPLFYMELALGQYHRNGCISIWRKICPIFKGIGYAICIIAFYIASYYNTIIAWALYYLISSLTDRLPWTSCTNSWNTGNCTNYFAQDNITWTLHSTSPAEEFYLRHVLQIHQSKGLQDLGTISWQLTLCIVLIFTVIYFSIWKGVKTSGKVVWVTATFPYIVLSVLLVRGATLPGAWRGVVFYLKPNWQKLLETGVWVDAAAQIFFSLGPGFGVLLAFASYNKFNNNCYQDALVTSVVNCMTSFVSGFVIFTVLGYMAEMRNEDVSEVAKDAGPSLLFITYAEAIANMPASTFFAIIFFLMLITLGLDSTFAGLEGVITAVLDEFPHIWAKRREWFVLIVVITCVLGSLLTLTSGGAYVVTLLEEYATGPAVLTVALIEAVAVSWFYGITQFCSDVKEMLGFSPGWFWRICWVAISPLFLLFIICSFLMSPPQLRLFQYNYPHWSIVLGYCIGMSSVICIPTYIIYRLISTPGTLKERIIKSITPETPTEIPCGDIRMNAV
Method in brief: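 Freshly isolated P2 synaptosomes taken from rat hypothalamus (NA) or medulla/pons (5-HT) were incubated at room temperature under O2 with [3H]-NA for 7.5 min or [3H]-5-HT for 5 min. Uptake was measured as filter-retained radioactivity by scintillation counting.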

[3] = biological target: T3, human μ opioid receptor (Homo sapiens, UniProt P35372); assay: affinity for the human μ opioid receptor, displacement of [3H]-naloxone, CHO-K1 membrane preparation; details: percentage inhibition of specific binding of [3H]-naloxone
T3 construct: purchased NEN, Zaventem, Belgium RB-HOM; host or cells: CHO-K1 cells (recombinant expression, membrane preparation)
T3 sequence (P35372 whole entry): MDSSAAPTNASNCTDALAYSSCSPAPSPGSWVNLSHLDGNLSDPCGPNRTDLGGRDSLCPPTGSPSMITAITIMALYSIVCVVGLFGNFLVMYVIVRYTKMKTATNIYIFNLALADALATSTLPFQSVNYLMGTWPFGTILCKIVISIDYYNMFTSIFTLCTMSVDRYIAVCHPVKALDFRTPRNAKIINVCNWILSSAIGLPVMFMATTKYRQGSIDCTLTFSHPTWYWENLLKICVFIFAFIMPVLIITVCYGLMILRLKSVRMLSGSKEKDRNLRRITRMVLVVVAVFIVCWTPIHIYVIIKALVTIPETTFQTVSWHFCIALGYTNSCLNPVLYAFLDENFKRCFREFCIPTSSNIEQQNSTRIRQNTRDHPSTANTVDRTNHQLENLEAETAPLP
Protocol: Receptor affinity for the human p opioid receptor is determined in a homogeneous batch in microtitre plates. To this end, dilution series of the particular substituted 1-oxa-3,8-diazaspiro[4.5]-decan-2-one compounds to be tested were incubated at room temperature for 90 minutes in a total volume of 250 μl with a receptor membrane preparation (15-40 μg of protein per 250 μl of incubation batch) of CHO-K1 cells, which express the human p opioid receptor (RB-HOM receptor membrane preparation from NEN, Zaventem, Belgium) in the presence of 1 nmol/l of the radioactive ligand [^3H]-naloxone (NET719, from NEN, Zaventem, Belgium) and of 1 mg of WGA-SPA beads (wheat germ agglutinin SPA beads from Amersham/Pharmacia, Freiburg, Germany). The incubation buffer used is 50 mmol/l tris-HCl supplemented with 0.05 wt. % of sodium azide and 0.06 wt. % of bovine serum albumin. Nonspecific binding is determined by additionally adding 25 μmol/l of naloxone. Once the ninety minute incubation time had elapsed, the microtitre plates were centrifuged off for 20 minutes at 1000 g and the radioactivity measured in a β counter (Microbeta-Trilux, from PerkinElmer Wallac, Freiburg, Germany). The percentage displacement of the radioactive ligand from its binding to the human p opioid receptor is determined at a concentration of the substances to be tested of 1 μmol/l and stated as percentage inhibition of specific binding.

T1 sequence (Q63380 1-617): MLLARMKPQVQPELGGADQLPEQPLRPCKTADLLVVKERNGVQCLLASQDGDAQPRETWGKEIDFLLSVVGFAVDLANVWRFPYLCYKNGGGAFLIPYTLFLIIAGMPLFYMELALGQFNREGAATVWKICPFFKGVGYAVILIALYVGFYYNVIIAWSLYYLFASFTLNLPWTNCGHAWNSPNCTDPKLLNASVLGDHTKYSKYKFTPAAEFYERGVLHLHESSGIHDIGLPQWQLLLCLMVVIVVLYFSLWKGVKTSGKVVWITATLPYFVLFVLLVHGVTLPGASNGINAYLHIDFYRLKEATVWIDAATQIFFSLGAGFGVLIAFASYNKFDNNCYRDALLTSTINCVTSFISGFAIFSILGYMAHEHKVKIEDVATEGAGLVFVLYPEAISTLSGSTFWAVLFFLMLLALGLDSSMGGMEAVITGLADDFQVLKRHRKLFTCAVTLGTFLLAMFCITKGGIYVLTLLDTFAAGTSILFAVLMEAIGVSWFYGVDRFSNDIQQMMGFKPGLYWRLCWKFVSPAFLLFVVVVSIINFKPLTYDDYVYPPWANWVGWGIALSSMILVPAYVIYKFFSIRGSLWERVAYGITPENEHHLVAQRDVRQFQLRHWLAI

## Cc1ccc(CN2CC3(CCN(C(=O)NCc4ccc(Cl)c(Cl)c4)CC3)OC2=O)cc1 [Example 36, 3-(4-methylbenzyl)-2-oxo-1-oxa-3,8-diazaspiro[4.5]decane-8-carboxylic acid 3,4-dichlorobenzylamide]
[1]
  inhibition at 10 µM: 60%
[2]
  inhibition at 10 µM: 56%

## COc1ccc(NC(=O)N2CCC3(CC2)CN(Cc2ccccc2)C(=O)O3)cc1 [Example 39, 3-benzyl-2-oxo-1-oxa-3,8-diazaspiro[4.5]decane-8-carboxylic acid (4-methoxyphenyl)amide]
[1]
  inhibition at 10 µM: 76%
[2]
  inhibition at 10 µM: 42%

## O=C(NCc1ccc(Cl)c(Cl)c1)N1CCC2(CC1)CN(Cc1cccc(Br)c1)C(=O)O2 [Example 42, 3-(3-bromobenzyl)-2-oxo-1-oxa-3,8-diazaspiro[4.5]decane-8-carboxylic acid 3,4-dichlorobenzylamide]
[1]
  inhibition at 10 µM: 83%
[2]
  inhibition at 10 µM: 60%

## O=C(NCc1ccc(Cl)c(Cl)c1)N1CCC2(CC1)CN(Cc1ccc3ccccc3c1)C(=O)O2 [Example 44, 3-naphthalen-2-ylmethyl-2-oxo-1-oxa-3,8-diazaspiro[4.5]decane-8-carboxylic acid 3,4-dichlorobenzylamide]
[1]
  inhibition at 10 µM: 61%
[2]
  inhibition at 10 µM: 57%

## COc1ccc(NC(=O)N2CCC3(CC2)CN(Cc2ccc4ccccc4c2)C(=O)O3)cc1 [Example 52, 3-naphthalen-2-ylmethyl-2-oxo-1-oxa-3,8-diazaspiro[4.5]decane-8-carboxylic acid (4-methoxyphenyl)amide]
[1]
  inhibition at 10 µM: 96%
[2]
  inhibition at 10 µM: 94%

## CCOC(=O)c1cccc(NC(=O)N2CCC3(CC2)CN(Cc2ccc(C)cc2)C(=O)O3)c1 [Example 53, 3-{[3-(4-methylbenzyl)-2-oxo-1-oxa-3,8-diazaspiro[4.5]decane-8-carbonyl]amino}benzoic acid ethyl ester]
[1]
  inhibition at 10 µM: 81%
[2]
  inhibition at 10 µM: 68%

## O=C(NCCc1ccccc1)N1CCC2(CC1)CN(Cc1ccccc1-c1ccccc1)C(=O)O2 [Example 57, 3-biphenyl-2-ylmethyl-2-oxo-1-oxa-3,8-diazaspiro[4.5]decane-8-carboxylic acid phenethylamide]
[1]
  inhibition at 10 µM: 55%
[2]
  inhibition at 10 µM: 50%

## CCOC(=O)c1cccc(NC(=O)N2CCC3(CC2)CN(Cc2cccc(C#N)c2)C(=O)O3)c1 [Example 61, 3-{[3-(3-cyanobenzyl)-2-oxo-1-oxa-3,8-diazaspiro[4.5]decane-8-carbonyl]amino}benzoic acid ethyl ester]
[1]
  inhibition at 10 µM: 77%
[2]
  inhibition at 10 µM: 69%

## COc1cccc(NC(=O)N2CCC3(CC2)CN(Cc2ccccc2-c2ccccc2)C(=O)O3)c1 [Example 62, 3-biphenyl-2-ylmethyl-2-oxo-1-oxa-3,8-diazaspiro[4.5]decane-8-carboxylic acid (3-methoxyphenyl)amide]
[1]
  inhibition at 10 µM: 67%
[2]
  inhibition at 10 µM: 57%

## COc1ccc([N+](=O)[O-])cc1CN1CC2(CCN(C(=O)NC(C)c3cccc4ccccc34)CC2)OC1=O (stereo not drawn) [Example 63, 3-(2-methoxy-5-nitrobenzyl)-2-oxo-1-oxa-3,8-diazaspiro[4.5]decane-8-carboxylic acid (1-naphthalen-1-yl-ethyl)amide]
[1]
  inhibition at 10 µM: 41%
[2]
  inhibition at 10 µM: 84%

## O=C(O)COCC(=O)N1CCC2(CC1)CN(Cc1ccc(F)c(F)c1)C(=O)O2 [Example 64, {2-[3-(3,4-difluorobenzyl)-2-oxo-1-oxa-3,8-diazaspiro[4.5]dec-8-yl]-2-oxoethoxy}acetic acid]
[3]
  inhibition at 1 µM: 48%

## O=C1OC2(CCN(Cc3ccc([N+](=O)[O-])cc3)CC2)CN1Cc1ccc(F)c(F)c1 [Example 74, 3-(3,4-difluorobenzyl)-8-(4-nitrobenzyl)-1-oxa-3,8-diazaspiro[4.5]decan-2-one]
[1]
  inhibition at 10 µM: 57%
[2]
  inhibition at 10 µM: 66%

## COc1ccc(-c2noc(CN3CCC4(CC3)CN(Cc3ccc(F)c(F)c3)C(=O)O4)n2)cc1 [Example 77, 3-(3,4-difluorobenzyl)-8-[3-(4-methoxyphenyl)-[1,2,4]oxadiazol-5-ylmethyl]-1-oxa-3,8-diazaspiro[4.5]decan-2-one]
[1]
  inhibition at 10 µM: 64%
[2]
  inhibition at 10 µM: 50%

## O=C1OC2(CCN(Cc3ccc(OC(F)(F)F)cc3)CC2)CN1Cc1ccccc1 [Example 78, 3-benzyl-8-(4-trifluoromethoxybenzyl)-1-oxa-3,8-diazaspiro[4.5]decan-2-one]
[1]
  inhibition at 10 µM: 53%
[2]
  inhibition at 10 µM: 51%

## COc1cccc(CN2CC3(CCN(Cc4ccc(Cl)cc4)CC3)OC2=O)c1 [Example 79, 8-(4-chlorobenzyl)-3-(3-methoxybenzyl)-1-oxa-3,8-diazaspiro[4.5]decan-2-one]
[1]
  inhibition at 10 µM: 57%
[2]
  inhibition at 10 µM: 67%

## Cc1csc(NC(=O)CN2CCC3(CC2)CN(Cc2ccc(F)c(F)c2)C(=O)O3)c1C#N [Example 80, N-(3-cyano-4-methylthiophen-2-yl)-2-[3-(3,4-difluorobenzyl)-2-oxo-1-oxa-3,8-diazaspiro[4.5]dec-8-yl]acetamide]
[1]
  inhibition at 10 µM: 45%
[2]
  inhibition at 10 µM: 47%

## O=C(CN1CCC2(CC1)CN(Cc1ccccc1F)C(=O)O2)Nc1nc(-c2ccccc2)cs1 [Example 86, 2-[3-(2-fluorobenzyl)-2-oxo-1-oxa-3,8-diazaspiro[4.5]dec-8-yl]-N-(4-phenylthiazol-2-yl)acetamide]
[1]
  inhibition at 10 µM: 79%
[2]
  inhibition at 10 µM: 56%

## O=C(CN1CCC2(CC1)CN(Cc1ccccc1C(F)(F)F)C(=O)O2)Nc1ccc(OC(F)(F)F)cc1 [Example 87, 2-[2-oxo-3-(2-trifluoromethylbenzyl)-1-oxa-3,8-diazaspiro[4.5]dec-8-yl]-N-(4-trifluoromethoxyphenyl)acetamide]
[1]
  inhibition at 10 µM: 59%
[2]
  inhibition at 10 µM: 72%

## N#Cc1ccc(CN2CC3(CCN(Cc4cccc([N+](=O)[O-])c4)CC3)OC2=O)cc1 [Example 89, 4-[8-(3-nitrobenzyl)-2-oxo-1-oxa-3,8-diazaspiro[4.5]dec-3-ylmethyl]benzonitrile]
[1]
  inhibition at 10 µM: 57%
[2]
  inhibition at 10 µM: 63%

## O=C1OC2(CCN(C(=O)c3ccc(-c4ccccc4)cc3)CC2)CN1Cc1cccc(Br)c1 [Example 104, 8-(biphenyl-4-carbonyl)-3-(3-bromobenzyl)-1-oxa-3,8-diazaspiro[4.5]decan-2-one]
[1]
  inhibition at 10 µM: 73%
[2]
  inhibition at 10 µM: 89%

## O=C1OC2(CCN(C(=O)c3ccc([N+](=O)[O-])cc3)CC2)CN1Cc1cccc(Br)c1 [Example 109, 3-(3-bromobenzyl)-8-(4-nitrobenzoyl)-1-oxa-3,8-diazaspiro[4.5]decan-2-one]
[1]
  inhibition at 10 µM: 78%
[2]
  inhibition at 10 µM: 81%

## COc1cc(OC)cc(C(=O)N2CCC3(CC2)CN(Cc2cccc(Br)c2)C(=O)O3)c1 [Example 137, 3-(3-bromobenzyl)-8-(3,5-dimethoxybenzoyl)-1-oxa-3,8-diazaspiro[4.5]decan-2-one]
[1]
  inhibition at 10 µM: 84%
[2]
  inhibition at 10 µM: 74%

## CCCc1ccc(C(=O)N2CCC3(CC2)CN(Cc2cccc(Br)c2)C(=O)O3)cc1 [Example 148, 3-(3-bromobenzyl)-8-(4-propylbenzoyl)-1-oxa-3,8-diazaspiro[4.5]decan-2-one]
[1]
  inhibition at 10 µM: 75%
[2]
  inhibition at 10 µM: 73%
